According to patent US11964956B2, “Cannabinergic compounds and uses thereof” (Northeastern University, priority 2012, dated 2024):
Like-named read-outs stand apart in the source and are kept apart here.

How the values were obtained:
rCB1 [1] = molecular target: T1, rCB1 (Rattus norvegicus, UniProt P20272); test: rCB1 competition-equilibrium binding with [3H]CP-55,940, rat brain membranes; design: Frozen rat brains (CB1 source) are obtained from Pel-Freeze Biologicals; tissue Pel-Freeze Biologicals (Rogers, AK); host or cells: rat brain membranes
Protocol: Frozen rat brains (CB1 source) are obtained from Pel-Freeze Biologicals (Rogers, AK) and stored at −80° C. until use. Membranes are prepared according to the method described by Dodd et al. and used in our laboratory as reported.
(§1) All the cannabinoids discussed in this invention are tested for their ability to bind to CB 1 and CB2 receptors using membranes from rat brain or HEK293 cells expressing either mCB2 or hCB2, respectively via competition-equilibrium binding using [^3H]CP-55,940. Results are analyzed using nonlinear regression to determine ligand IC50 (Prism by GraphPad Software, Inc.), and Ki values are calculated from the IC50. IC50 and Ki values are determined from at least three independent experiments.
(§2) Some disclosed compounds were tested for CB1 and CB2 receptor binding affinity, which can be represented by a Ki value. The Ki value is the affinity constant and describes the affinity of the compound for the receptor. […] A detailed description of the methods used to test binding affinity of compounds is given in US 2007/0135388 and in Papahatjis, et al., J. Med. Chem. (2007) 4048, the content of each of which is hereby incorporated by reference.

hCB2 = molecular target: T2, hCB2 (Homo sapiens, UniProt P34972); test: hCB2 competition-equilibrium binding with [3H]CP-55,940, HEK293 membranes
T2 construct: expressed in transfected cells; host or cells: HEK293
Protocol: (§3) HEK293 cells expressing hCB1 or hCB2 or mCB2 receptor are used for membrane preparations according to Abadji et al. The resulting pellet is resuspended in 10 mM Tris-chloride, pH 7.4, with 5 mM MgCl2 and 2 mM EDTA (TME), rapidly frozen in liquid nitrogen and stored at −80° C. for no longer than two months. Protein content is assayed by using the Bio-Rad protein assay according to the manufacturer's protocol.
as §1, §2

mCB2 = molecular target: T3, mCB2 (Mus musculus, UniProt P47936); test: mCB2 competition-equilibrium binding with [3H]CP-55,940, HEK293 membranes
T3 construct: expressed in transfected cells; host or cells: HEK293
Protocol: as §3, §1, §2

rCB1 [2] = molecular target: T1, rCB1; test: cAMP assay, rCB1; format: cell-based; settings: for Emax: cAMP assay
Protocol: Functional characterization of some of the disclosed compounds was performed by using the cyclic adenosine monophosphate (cAMP) assay. The functional potency of the compound in the cAMP assay is represented by the EC50 value. The lower the EC50 value, the higher the functional potency. A detailed description of the cyclic adenosine monophosphate (cAMP) assay is given in Nikas et al. J. Med. Chem. (2010) 6996, the content of which is incorporated herein by reference. Table 10 lists the EC50 values of certain compounds of Formula (Je) in the cAMP assay.

T1 sequence (P20272 whole entry): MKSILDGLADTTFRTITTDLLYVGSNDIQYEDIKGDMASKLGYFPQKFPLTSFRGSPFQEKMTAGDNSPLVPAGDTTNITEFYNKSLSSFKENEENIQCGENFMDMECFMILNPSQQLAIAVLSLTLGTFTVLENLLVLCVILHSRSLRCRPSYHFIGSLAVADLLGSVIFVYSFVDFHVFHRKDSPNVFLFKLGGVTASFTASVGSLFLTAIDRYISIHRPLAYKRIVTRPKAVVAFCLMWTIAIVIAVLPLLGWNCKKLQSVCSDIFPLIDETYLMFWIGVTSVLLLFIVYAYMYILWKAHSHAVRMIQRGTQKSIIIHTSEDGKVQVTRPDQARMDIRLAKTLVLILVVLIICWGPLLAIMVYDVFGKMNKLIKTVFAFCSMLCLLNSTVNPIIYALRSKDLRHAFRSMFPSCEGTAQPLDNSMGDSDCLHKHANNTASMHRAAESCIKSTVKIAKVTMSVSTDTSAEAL
T2 sequence (P34972 whole entry): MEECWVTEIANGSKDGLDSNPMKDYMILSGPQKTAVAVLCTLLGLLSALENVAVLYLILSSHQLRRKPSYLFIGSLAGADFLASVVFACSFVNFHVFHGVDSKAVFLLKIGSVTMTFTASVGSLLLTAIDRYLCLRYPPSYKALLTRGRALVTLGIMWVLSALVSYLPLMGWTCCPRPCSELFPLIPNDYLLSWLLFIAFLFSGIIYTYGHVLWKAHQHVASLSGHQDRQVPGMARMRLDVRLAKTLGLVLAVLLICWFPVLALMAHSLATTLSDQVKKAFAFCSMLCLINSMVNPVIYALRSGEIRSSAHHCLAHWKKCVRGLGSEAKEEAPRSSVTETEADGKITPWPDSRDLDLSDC
T3 sequence (P47936 whole entry): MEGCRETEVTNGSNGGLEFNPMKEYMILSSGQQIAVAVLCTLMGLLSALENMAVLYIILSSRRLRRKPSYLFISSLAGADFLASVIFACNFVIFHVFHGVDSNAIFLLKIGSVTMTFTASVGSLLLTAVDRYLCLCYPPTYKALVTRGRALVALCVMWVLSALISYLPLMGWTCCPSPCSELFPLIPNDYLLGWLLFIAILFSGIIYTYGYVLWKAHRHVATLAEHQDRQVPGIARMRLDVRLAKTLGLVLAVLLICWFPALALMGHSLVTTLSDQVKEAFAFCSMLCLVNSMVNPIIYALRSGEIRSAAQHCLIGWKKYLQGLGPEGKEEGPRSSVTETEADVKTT

Row | Structure (SMILES) | Ki (rCB1 [1]) | Ki (hCB2) | Ki (mCB2) | Ki (mCB2; HEK293 cells expressing mCB2, Tables 5-8, read-out: mCB2 Ki) | Ki (rCB1 [1]; rat brain membranes, Tables 5-8, read-out: rCB1 Ki) | EC50 (rCB1 [2]) | Emax (rCB1 [2])
1 | CCCCOC(=O)C1(c2cc(O)c3c(c2)OC(C)(C)C2CCC(=O)CC32)CCCC1 (stereo not drawn) [AM8137] | 0.4 ± 0.01 nM | – | – | – | – | – | –
2 | CC1(C)Oc2cc(C3(C(=O)O)CCCC3)cc(O)c2C2CC(=O)CCC21 (stereo not drawn) [AM8139] | > 1000 nM | > 1000 nM | > 1000 nM | – | – | – | –
3 | CC1=CC[C@H]2[C@@H](C1)c1c(O)cc(C(C)(C)C(=O)OCCCCC#N)cc1OC2(C)C [Compound 1.3, 4-cyanobutyl-2-((6aS, 10aR)-6a, 7, 10, 10a-tetrahydro-1-hydroxy-6,6,9-trimethyl-6H-benzo[c]chromen-3-yl)-2-methylpropanoate] | – | – | – | 0.5 nM | – | – | –
4 | CC1=CC[C@@H]2[C@@H](C1)c1c(O)cc(C(C)(C)C(=O)OCCCN3CCOCC3)cc1OC2(C)C [Compound 1.25, 3-morpholinopropyl 2-((6aR, 10aR)-1-hydroxy-6,6,9-trimethyl-6a,7, 10, 10a-tetrahydro-6H-benzo[c]chromen-3-yl)-2-methylpropanoate] | – | – | 104 nM | – | – | – | –
5 | CC(C)(C(=O)OCCCC#N)c1cc(O)c2c(c1)OC(C)(C)[C@@H]1CC=C(CO)C[C@@H]21 [Compound 2.5] | 1 nM | 1 nM | 1 nM | – | – | – | –
6 | CCCCOC(=O)C(C)(C)c1cc(O)c2c(c1)OC(C)(C)[C@@H]1CC[C@H](O)C[C@@H]21 [Compound 3.8, Butyl-2-((6aR,9S, 10aR)-6a,7,8,9, 10, 10a-hexahydro-1,9-dihydroxy-6,6-dimethyl-6H-benzo[c]chromen-3-yl)-2-methylpropanoate] | – | – | 0.6 nM | – | – | – | –
7 | CCCCCCC(C)(C)c1cc(O)c2c(c1)OC(C)(C)[C@@H]1CCOC(=O)C[C@@H]21 [Compound 3.11, (5aR, 11bR)-11-hydroxy-6,6-dimethyl-9-(2-methyloctan-2-yl)-4,5,5a,6-tetrahydro-1H-oxepino[4,5-c]chromen-2(11bH)-one] | – | – | 8 nM | – | – | – | –
8 | CCOC(=O)C(C)(C)c1cc(O)c(-c2cccc(C#N)c2)c(O)c1 [Compound 4.2, Ethyl 2-(3′-cyano-2,6-dihydroxybiphenyl-4-yl)-2-methylpropanoate] | – | – | – | – | 3.66 nM | – | –
9 | CC(C)(C(=O)OCCCI)c1cc(O)c2c(c1)OC(C)(C)[C@@H]1CCC(=O)C[C@@H]21 [Compound 7, 3-Iodopropyl-2-((6aR,10aR)-1-hydroxy-6,6-dimethyl-9-oxo-6a,7,8,9,10,10a-hexahydro-6H-benzo[c]chromen-3-yl)-2-methylpropanoate] | 0.1 ± 0.04 nM | 5.3 ± 0.9 nM | 1.2 ± 0.6 nM | – | – | – | –
10 | CC(C)(C(=O)OCCCN=C=S)c1cc(O)c2c(c1)OC(C)(C)[C@@H]1CCC(=O)C[C@@H]21 [Compound 10, 3-Isothiocyanatopropyl-2-((6aR,10aR)-1-hydroxy-6,6-dimethyl-9-oxo-6a,7,8,9,10,10a-hexahydro-6H-benzo[c]chromen-3-yl)-2-methylpropanoate] | 7.9 nM | 22 nM | 20 nM | – | – | 13.8 nM | 38%
11 | CC(C)(CC(=O)O)c1cc(O)c2c(c1)OC(C)(C)[C@@H]1CCC(=O)C[C@@H]21 [Compound 19, 3-((6aR,10aR)-1-Hydroxy-6,6-dimethyl-9-oxo-6a,7,8,9,10,10a-hexahydro-6H-benzo[c]chromen-3-yl)-3-methylbutanoic acid] | > 1000 nM | > 1000 nM | > 1000 nM | – | – | – | –
12 | COC(=O)CCC(C)(C)c1cc(O)c2c(c1)OC(C)(C)[C@@H]1CCC(=O)C[C@@H]21 [Compound 23, Methyl-4-((6aR,10aR)-1-hydroxy-6,6-dimethyl-9-oxo-6a,7,8,9,10,10a-hexahydro-6H-benzo[c]chromen-3-yl)-4-methylpentanoate] | 270 ± 34.6 nM | 560 ± 64.3 nM | 540 ± 46.7 nM | – | – | – | –
13 | CC(C)(C(=O)O)c1cc(O)c2c(c1)OC(C)(C)[C@@H]1CCC(=O)C[C@@H]21 [Compound 32, 2-[(6aR,10aR)-6a,7,8,9,10,10a-Hexahydro-1-hydroxy-6,6-dimethyl-9-oxo-6H-benzo[c]chromen-3-yl]-2-methylpropanoic acid] | > 1000 nM | > 1000 nM | > 1000 nM | – | – | – | –
14 | CCOC(=O)C(C)(C)c1cc(O)c2c(c1)OC(C)(C)[C@@H]1CCC(=O)C[C@@H]21 [Compound 34a, Ethyl 2-((6aR,10aR)-1-hydroxy-6,6-dimethyl-9-oxo-6a,7,8,9,10,10a-hexahydro-6H-benzo[c]chromen-3-yl)-2-methylpropanoate] | 36.7 ± 5.6 nM | 67.5 ± 13.4 nM | 89.7 ± 18.1 nM | – | – | – | –
15 | CCCOC(=O)C(C)(C)c1cc(O)c2c(c1)OC(C)(C)[C@@H]1CCC(=O)C[C@@H]21 [Compound 34b, Propyl 2-((6aR,10aR)-1-hydroxy-6,6-dimethyl-9-oxo-6a,7,8,9,10,10a-hexahydro-6H-benzo[c]chromen-3-yl)-2-methylpropanoate] | 4.8 ± 0.8 nM | 8.3 ± 3.1 nM | 32 ± 5.2 nM | – | – | – | –
16 | CCCCCCOC(=O)C(C)(C)c1cc(O)c2c(c1)OC(C)(C)[C@@H]1CCC(=O)C[C@@H]21 [Compound 34d, Hexyl 2-((6aR,10aR)-1-hydroxy-6,6-dimethyl-9-oxo-6a,7,8,9,10,10a-hexahydro-6H-benzo[c]chromen-3-yl)-2-methylpropanoate] | 5.9 ± 1.2 nM | 15.1 ± 2.2 nM | 30 ± 7.3 nM | – | – | – | –
17 | CCC[C@H](C)OC(=O)C(C)(C)c1cc(O)c2c(c1)OC(C)(C)[C@@H]1CCC(=O)C[C@@H]21 [Compound 34e, (S)-pentan-2-yl 2-((6aR,10aR)-1-hydroxy-6,6-dimethyl-9-oxo-6a,7,8,9,10,10a-hexahydro-6H-benzo[c]chromen-3-yl)-2-methylpropanoate] | 3 ± 0.5 nM | 12.4 ± 2.5 nM | 54 ± 10.6 nM | – | – | 2.9 nM | 58%
18 | CCCCNC(=O)C(C)(C)c1cc(O)c2c(c1)OC(C)(C)[C@@H]1CCC(=O)C[C@@H]21 [Compound 34i, N-Butyl-2-((6aR,10aR)-1-hydroxy-6,6-dimethyl-9-oxo-6a,7,8,9,10,10a-hexahydro-6H-benzo[c]chromen-3-yl)-2-methylpropanamide] | 115 ± 21.6 nM | > 1000 nM | > 1000 nM | – | – | – | –
19 | CC(C)(C(=O)OCCCCBr)c1cc(O)c2c(c1)OC(C)(C)[C@@H]1CCC(=O)C[C@@H]21 [Compound 36, 4-Bromobutyl 2-((6aR,10aR)-1-hydroxy-6,6-dimethyl-9-oxo-6a,7,8,9,10,10a-hexahydro-6H-benzo[c]chromen-3-yl)-2-methylpropanoate] | 0.002 nM | – | 1.8 nM | – | – | – | –
20 | CC(C)(C(=O)OCCCCN=[N+]=[N-])c1cc(O)c2c(c1)OC(C)(C)[C@@H]1CCC(=O)C[C@@H]21 [Compound 37, 4-Azidobutyl 2-((6aR,10aR)-1-hydroxy-6,6-dimethyl-9-oxo-6a,7,8,9,10,10a-hexahydro-6H-benzo[c]chromen-3-yl)-2-methylpropanoate] | 1.7 nM | 1.7 nM | 4.5 nM | – | – | – | –
21 | CC(C)(C(=O)OCCCCN=C=S)c1cc(O)c2c(c1)OC(C)(C)[C@@H]1CCC(=O)C[C@@H]21 [Compound 38, 4-Isothiocyanatobutyl 2-((6aR,10aR)-1-hydroxy-6,6-dimethyl-9-oxo-6a,7,8,9,10,10a-hexahydro-6H-benzo[c]chromen-3-yl)-2-methylpropanoate] | 4.9 nM | 5.2 nM | 21.4 nM | – | – | – | –
22 | CC(C)(C(=O)OCCCCO[N+](=O)[O-])c1cc(O)c2c(c1)OC(C)(C)[C@@H]1CCC(=O)C[C@@H]21 [Compound 39, 4-(Nitrooxy)butyl 2-((6aR,10aR)-1-hydroxy-6,6-dimethyl-9-oxo-6a,7,8,9,10,10a-hexahydro-6H-benzo[c]chromen-3-yl)-2-methylpropanoate] | 0.2 nM | 2.6 nM | 2.2 nM | – | – | – | –
